Activity calls are given as the source filed them.
Experiments:
Nonstructural protein 1 = Nonstructural protein 1 (Influenza A virus, UniProt Q194T2); format: functional, Influenza A virus (A/California/07/2009(H1N1))
[1] = target: T1, Carboxy-terminal domain RNA polymerase II polypeptide A small phosphatase 1 (Homo sapiens, UniProt Q9GZU7); assay: CTDSP1 inhibitors, concentration-response, biochemical, absorbance readout, ultra-high-throughput screen actives (AID 540297); format: functional
T1 sequence (Q9GZU7 whole entry): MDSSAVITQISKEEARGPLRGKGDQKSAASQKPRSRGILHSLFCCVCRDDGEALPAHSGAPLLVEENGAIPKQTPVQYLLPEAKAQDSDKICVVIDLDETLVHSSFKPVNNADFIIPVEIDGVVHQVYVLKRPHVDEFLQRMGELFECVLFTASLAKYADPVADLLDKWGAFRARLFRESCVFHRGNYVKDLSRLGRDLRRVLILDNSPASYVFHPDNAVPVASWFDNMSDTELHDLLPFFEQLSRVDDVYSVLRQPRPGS

Cytochrome P450 2C9 = Cytochrome P450 2C9 (Homo sapiens, UniProt P11712)
HeLa = assay: ATP-based viability loss in HeLa cells – cell-based, CellTiter-Glo luminescence, cherry-pick samples, cytotoxicity control for MITF activator project, dose response (AID 540259); format: functional; settings: Homo sapiens
[2] = microbe, parasite or virus in culture; format: functional; settings: Mycobacterium tuberculosis
[3] = reduction of Shn3 3'UTR-driven luciferase in osteoblasts – cell-based, Clone20 osteoblasts, firefly luciferase, cherry-picked, dose response (AID 624132); format: functional;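 note: firefly luciferase luminescence from reporter carrying the Shn3 3'UTR in osteoblasts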
[4] = loss of viability in HepG2 cells – cell-based, CellTiter-Glo, cherry-picked, cytotoxicity control for Shn3 inhibitor project, dose response (AID 624134); format: functional
[5] = non-specific 3'UTR reporter inhibition in Clone20-Shn3RL – cell-based, Renilla luciferase, cherry-picked, counter-screen for Shn3 inhibitor project, dose response (AID 624133); format: functional
Genome polyprotein = Genome polyprotein (dengue virus type 2, UniProt P29990); assay: flavivirus cap methylation enzyme inhibition – biochemical, confirmation dose response, primary screen (AID 588689); format: functional
Cytochrome P450 2D6 = Cytochrome P450 2D6 (Homo sapiens, UniProt P10635);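 note: CYP2D6 member of a cytochrome P450 panel assay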
[6] = Trypanosoma cruzi growth suppression in host cells – NIH3T3 host cells, beta-gal luminescence, confirmation (AID 2044); format: functional, cell-based;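 note: intracellular parasites grown in NIH/3T3 mouse fibroblasts as host cells; luminescent beta-galactosidase reporter signal from transgenic T. cruzi replicating inside host cells; inhibitors lower the luminescence signal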
[7] = NIH3T3 cell viability loss – ATP luminescence, mouse fibroblasts, counter-screen, dose response (AID 2010); format: functional, cell-based;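 note: cells exposed to compound for about 90 hours before reading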
Paired box protein Pax-8 = Paired box protein Pax-8 (Homo sapiens, UniProt Q06710); assay: PAX8 transcriptional activity inhibition in RMG-I – RMG-I cells, luciferase, cherry-pick, dose response (AID 687027); format: functional, cell-based;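 note: luciferase reporter driven by Pax8 target thyroperoxidase promoter measured by SteadyGlo luminescence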
Cytochrome P450 1A2 = target: T2, Cytochrome P450 1A2 (Homo sapiens, UniProt P05177);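 note: PubChem cytochrome P450 panel assay, CYP1A2 panel member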
T2 sequence (P05177 whole entry): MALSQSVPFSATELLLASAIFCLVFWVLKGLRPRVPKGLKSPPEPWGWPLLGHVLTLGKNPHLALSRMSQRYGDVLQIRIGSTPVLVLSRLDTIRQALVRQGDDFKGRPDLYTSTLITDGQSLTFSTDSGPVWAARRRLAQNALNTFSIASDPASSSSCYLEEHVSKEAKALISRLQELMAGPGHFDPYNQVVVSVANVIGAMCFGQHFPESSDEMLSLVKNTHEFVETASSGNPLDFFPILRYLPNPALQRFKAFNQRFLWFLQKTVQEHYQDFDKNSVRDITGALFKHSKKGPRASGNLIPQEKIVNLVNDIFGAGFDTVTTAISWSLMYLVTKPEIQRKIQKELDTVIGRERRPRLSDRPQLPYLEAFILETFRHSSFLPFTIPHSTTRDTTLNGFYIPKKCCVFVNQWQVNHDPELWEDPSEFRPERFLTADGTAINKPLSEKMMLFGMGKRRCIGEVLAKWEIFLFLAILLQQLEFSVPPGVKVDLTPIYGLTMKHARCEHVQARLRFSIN

Cytochrome P450 3A4 = Cytochrome P450 3A4 (Homo sapiens, UniProt P08684);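 note: CYP3A4 tested as one member of a cytochrome P450 panel screen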
H9c2 = assay: cells; format: functional, cell-based; settings: Rattus norvegicus, H9c2, Myocardium;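 note: confirmatory concentration-response retest of ultra-high-throughput screening hits for modulation of myocardial damage; cell death induced by hydrogen peroxide oxidative stress; compound pretreatment for 60 min then peroxide exposure for 2 h; potency is for protecting the cells against peroxide damage rather than for killing them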
[8] = luciferase reporter signal suppression in cells – H4 neuroglioma cells, luminescence, dose response (AID 1990); format: functional, cell-based
[9] = Luminescence Cell-Based Dose Response HTS to Identify Inhibitors of 5'UTR Stem-Loop Driven Prion Protein mRNA Translation in H4 Neuroglioblastoma Cells. [Related pubchem assays: 1827 (Project Summary), 1813 (Primary HTS)]; format: functional
[10] = alpha-synuclein stem-loop luciferase translation blockers – H4 neuroglioma cells, luminescence, confirmation (AID 1988); format: functional, cell-based
Cytochrome P450 2C19 = Cytochrome P450 2C19 (Homo sapiens, UniProt P33261); assay: Cytochrome panel assay with activity outcomes. Panel member name: p450-cyp2c19 Compounds with AC50 equal or less than 10 uM are considered active; format: functional; settings: read-out: AC50
BJ [11] = assay: BJ-TERT fibroblast viability loss – cell-based, RAS-independent, luminescence, dose response (AID 1933); format: functional; settings: Homo sapiens
BJ [12] = assay: cells; format: functional, cell-based; settings: Homo sapiens
BJ [13] = assay: BJ-TERT-LT-ST fibroblast viability loss – cell-based, RAS-independent, luminescence, dose response (AID 1935); format: functional; settings: Homo sapiens;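 note: BJ fibroblasts immortalized with TERT plus LT and ST oncogenes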
[14] = DRD fibroblast viability loss – cell-based, non-viral oncogenic, luminescence, dose response (AID 1934); format: functional; settings: Homo sapiens

Chain of Genome polyprotein (P29990 2492-3391 limits assumed): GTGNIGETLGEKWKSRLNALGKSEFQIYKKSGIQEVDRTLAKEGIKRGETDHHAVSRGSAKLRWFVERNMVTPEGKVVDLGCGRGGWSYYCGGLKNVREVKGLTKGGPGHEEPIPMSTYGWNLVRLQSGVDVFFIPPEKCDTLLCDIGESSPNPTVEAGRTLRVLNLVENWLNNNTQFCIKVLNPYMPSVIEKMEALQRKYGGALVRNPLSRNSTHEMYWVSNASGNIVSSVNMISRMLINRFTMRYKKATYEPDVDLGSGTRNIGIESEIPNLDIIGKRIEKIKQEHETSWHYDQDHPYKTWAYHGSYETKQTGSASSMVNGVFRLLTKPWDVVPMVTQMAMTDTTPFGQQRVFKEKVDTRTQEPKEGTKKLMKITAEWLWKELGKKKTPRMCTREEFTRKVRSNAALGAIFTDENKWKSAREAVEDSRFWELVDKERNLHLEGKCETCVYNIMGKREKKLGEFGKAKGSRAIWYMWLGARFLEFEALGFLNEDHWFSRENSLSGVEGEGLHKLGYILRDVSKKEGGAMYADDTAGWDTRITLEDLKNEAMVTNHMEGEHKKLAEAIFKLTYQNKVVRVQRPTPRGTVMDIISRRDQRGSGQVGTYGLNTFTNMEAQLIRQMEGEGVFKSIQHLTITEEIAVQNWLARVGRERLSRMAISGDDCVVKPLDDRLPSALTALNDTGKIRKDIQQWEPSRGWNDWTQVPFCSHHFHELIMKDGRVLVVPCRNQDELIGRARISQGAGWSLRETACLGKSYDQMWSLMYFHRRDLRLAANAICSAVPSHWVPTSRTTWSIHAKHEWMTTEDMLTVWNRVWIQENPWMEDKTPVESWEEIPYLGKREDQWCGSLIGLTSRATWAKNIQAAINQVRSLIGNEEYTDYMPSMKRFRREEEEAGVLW
Chain of Paired box protein Pax-8 (Q06710 whole entry): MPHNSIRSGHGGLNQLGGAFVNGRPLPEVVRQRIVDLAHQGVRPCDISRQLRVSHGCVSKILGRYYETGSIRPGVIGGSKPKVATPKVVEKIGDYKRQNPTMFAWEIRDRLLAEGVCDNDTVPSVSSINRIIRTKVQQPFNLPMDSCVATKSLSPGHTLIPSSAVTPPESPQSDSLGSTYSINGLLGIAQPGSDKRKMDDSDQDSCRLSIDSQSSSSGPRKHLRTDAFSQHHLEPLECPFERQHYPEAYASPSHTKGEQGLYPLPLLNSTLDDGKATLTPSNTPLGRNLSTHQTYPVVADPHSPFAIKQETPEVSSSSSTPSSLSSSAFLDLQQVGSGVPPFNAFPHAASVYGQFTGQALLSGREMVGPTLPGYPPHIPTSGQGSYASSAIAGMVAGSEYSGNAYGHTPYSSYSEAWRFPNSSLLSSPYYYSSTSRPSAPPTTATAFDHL
Chain of Cytochrome P450 2C9 (P11712 whole entry): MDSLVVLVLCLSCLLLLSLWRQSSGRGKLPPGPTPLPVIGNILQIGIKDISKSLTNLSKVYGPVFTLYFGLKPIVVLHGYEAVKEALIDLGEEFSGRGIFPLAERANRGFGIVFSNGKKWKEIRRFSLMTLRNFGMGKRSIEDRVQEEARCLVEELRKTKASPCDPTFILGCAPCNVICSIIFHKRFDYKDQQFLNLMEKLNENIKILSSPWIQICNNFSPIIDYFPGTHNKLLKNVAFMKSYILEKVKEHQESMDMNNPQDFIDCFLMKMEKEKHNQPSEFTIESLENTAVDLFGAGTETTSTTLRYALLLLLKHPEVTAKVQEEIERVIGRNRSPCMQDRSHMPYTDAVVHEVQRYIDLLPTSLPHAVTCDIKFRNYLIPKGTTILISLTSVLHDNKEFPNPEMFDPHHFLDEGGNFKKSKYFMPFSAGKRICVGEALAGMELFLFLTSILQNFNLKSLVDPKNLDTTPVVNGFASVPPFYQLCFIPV
Chain of Cytochrome P450 2D6 (P10635 whole entry): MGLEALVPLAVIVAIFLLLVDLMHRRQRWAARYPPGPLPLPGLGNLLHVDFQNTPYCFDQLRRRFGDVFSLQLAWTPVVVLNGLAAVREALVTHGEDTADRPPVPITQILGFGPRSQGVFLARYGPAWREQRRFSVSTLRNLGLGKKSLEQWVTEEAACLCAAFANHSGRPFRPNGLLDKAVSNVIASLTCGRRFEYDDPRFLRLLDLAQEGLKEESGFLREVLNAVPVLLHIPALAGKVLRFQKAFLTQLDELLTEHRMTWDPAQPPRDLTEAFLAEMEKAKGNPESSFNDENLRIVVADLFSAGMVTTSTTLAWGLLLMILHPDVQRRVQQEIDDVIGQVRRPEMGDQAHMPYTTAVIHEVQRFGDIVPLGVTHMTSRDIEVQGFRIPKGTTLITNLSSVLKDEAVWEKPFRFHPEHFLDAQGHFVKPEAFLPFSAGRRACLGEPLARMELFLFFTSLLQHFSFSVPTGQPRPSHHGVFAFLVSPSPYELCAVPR
Chain of Nonstructural protein 1 (Q194T2 whole entry, the tested form may be a part): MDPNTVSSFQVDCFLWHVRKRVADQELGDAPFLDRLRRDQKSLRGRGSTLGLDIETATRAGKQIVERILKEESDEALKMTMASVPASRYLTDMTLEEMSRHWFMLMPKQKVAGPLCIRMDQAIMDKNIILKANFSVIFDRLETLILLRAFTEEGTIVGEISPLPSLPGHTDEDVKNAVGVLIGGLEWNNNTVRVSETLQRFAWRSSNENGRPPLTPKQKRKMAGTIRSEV
Chain of Cytochrome P450 3A4 (P08684 whole entry): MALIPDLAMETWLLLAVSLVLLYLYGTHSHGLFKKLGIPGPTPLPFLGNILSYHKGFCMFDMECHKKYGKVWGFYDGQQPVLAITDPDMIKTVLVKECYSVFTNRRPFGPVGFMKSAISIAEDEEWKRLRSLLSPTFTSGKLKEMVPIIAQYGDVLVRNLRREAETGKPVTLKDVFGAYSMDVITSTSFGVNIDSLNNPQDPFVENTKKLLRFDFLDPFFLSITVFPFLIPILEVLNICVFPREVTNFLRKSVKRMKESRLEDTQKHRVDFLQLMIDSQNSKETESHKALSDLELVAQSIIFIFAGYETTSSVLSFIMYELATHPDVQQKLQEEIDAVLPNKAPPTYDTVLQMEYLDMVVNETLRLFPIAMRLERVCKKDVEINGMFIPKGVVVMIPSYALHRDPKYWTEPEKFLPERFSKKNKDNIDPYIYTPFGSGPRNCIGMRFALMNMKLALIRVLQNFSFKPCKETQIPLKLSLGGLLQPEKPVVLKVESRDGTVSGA
Chain of Cytochrome P450 2C19 (P33261 whole entry): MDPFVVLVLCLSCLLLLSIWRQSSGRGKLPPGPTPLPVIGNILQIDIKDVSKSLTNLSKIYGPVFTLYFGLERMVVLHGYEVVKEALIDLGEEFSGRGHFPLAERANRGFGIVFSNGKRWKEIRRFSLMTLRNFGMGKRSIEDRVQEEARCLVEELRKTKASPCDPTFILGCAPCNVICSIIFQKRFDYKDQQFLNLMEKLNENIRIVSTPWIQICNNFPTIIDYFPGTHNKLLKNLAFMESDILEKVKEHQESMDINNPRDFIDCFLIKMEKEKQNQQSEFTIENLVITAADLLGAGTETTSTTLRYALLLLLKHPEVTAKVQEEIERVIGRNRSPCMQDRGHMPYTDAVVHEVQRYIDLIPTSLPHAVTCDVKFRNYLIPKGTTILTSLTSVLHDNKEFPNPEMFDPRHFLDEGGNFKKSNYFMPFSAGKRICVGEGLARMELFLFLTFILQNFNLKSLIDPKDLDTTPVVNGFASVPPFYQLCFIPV

Compound: CCCCCc1cc(=O)oc2c(C(CCN(CC)CC)c3ccc(N(C)C)cc3)c(OC)cc(OC)c12 (stereo not given)
- IC50 (Nonstructural protein 1): 9.17 µM (active)

Compound: COc1ccc(OCC(=O)NNC(=O)c2ccc(-c3ccccc3)cc2)cc1
- IC50 [1]: 7.77 µM (active)
- AC50 (Cytochrome P450 2C9): inconclusive

Compound: CC(=O)N=C(N)Nc1nc(=O)c2ccccc2s1
- AC50 (HeLa): 69.2 µM (active)

Compound: CC(C)(C)C(=O)N1CCN(c2ccc(NC(=O)c3ccc([N+](=O)[O-])o3)cc2)CC1
- CC50 [2]: 2.96 µM (active)
- AC50 [3]: 2.45 µM (active)
- AC50 [4]: > 70 µM (inactive)
- AC50 [5]: 7.74 µM (active)

Compound: O=C1NC(=O)C(=Cc2ccc3ccccc3c2)C(=O)N1
- IC50 (Genome polyprotein): 50.8 µM (active)

Compound: O=C(Cc1ccc(Cl)cc1)Nc1ccc(N2CCN(C(=O)c3ccco3)CC2)cc1
- AC50 [3]: > 70 µM (inactive)
- AC50 [4]: > 70 µM (inactive)
- AC50 [5]: 6.62 µM (active)

Compound: Cn1c(=O)c2cc(S(=O)(=O)NCCC(=O)NCc3ccccc3Cl)ccc2n(C)c1=O
- AC50 (Cytochrome P450 2D6): 17.8 µM (inconclusive)
- AC50 (Cytochrome P450 2C9): inconclusive

Compound: CCNC(=O)C(=O)N/N=C/c1cc([N+](=O)[O-])ccc1O
- IC50 (Nonstructural protein 1): 2.44 µM (active)

Compound: C=CS(=O)(=O)c1sc(Cl)c(N2CCOCC2)c1[N+](=O)[O-]
- EC50 [6]: 5.42 µM (active)
- EC50 [7]: 7.27 µM (active)
- IC50 (Genome polyprotein): 11 µM (active)
- AC50 [3]: 1.31 µM (active)
- AC50 [5]: 13.3 µM (active)

Compound: O=C(Cn1cncn1)N/N=C/c1ccccc1O
- IC50 (Nonstructural protein 1): 22.1 µM (active)

Compound: C[C@@H]1CCCCO[C@@H](CN(C)Cc2ccc(C(F)(F)F)cc2)[C@H](C)CN([C@H](C)CO)C(=O)c2cc(NS(=O)(=O)c3ccc(Cl)cc3)ccc2O1
- AC50 (Paired box protein Pax-8): 8.48 µM (active)

Compound: CCNc1ncc2nc(-c3cn(C)c4ccccc34)c(=O)n(-c3ccccc3)c2n1
- AC50 (Cytochrome P450 2D6): 25.1 µM (inconclusive)
- AC50 (Cytochrome P450 1A2): 15.8 µM (inconclusive)
- AC50 (Cytochrome P450 3A4): 6.31 µM (inconclusive)
- AC50 (Cytochrome P450 2C9): inconclusive

Compound: O=C(CN1C(=O)c2ccccc2C1=O)NCC(=O)OCC(=O)c1ccc(Br)cc1
- AC50 (Cytochrome P450 3A4): 3.55 µM (inconclusive)
- AC50 (Cytochrome P450 2C9): inconclusive

Compound: CCOC(=O)C1=NN(c2ccccc2)C(=O)/C1=C\c1ccc(N(C)C)cc1
- IC50 (Nonstructural protein 1): > 100 µM (active)

Compound: COc1cc(-c2cnc3c(NC=O)cc(-c4cccc(NC(C)=O)c4)cn23)cc(OC)c1OC
- IC50 (H9c2): > 79 µM (inactive)
- AC50 (Paired box protein Pax-8): 2.88 µM (active)

Compound: C=CC[C@H](CC(=O)N(CCO)Cc1ccccc1)C(=O)N[C@@H](COC(=O)[C@H](CC=C)CC(=O)OC(C)(C)C)Cc1c[nH]c2ccccc12
- AC50 (Paired box protein Pax-8): 15.9 µM (active)

Compound: CNc1nc(Cl)nc(NC(C)(C)C)n1
- EC50 [8]: 12.7 µM (active)
- EC50 [9]: > 120 µM (not active)
- EC50 [10]: > 120 µM (not active)
- AC50 (Cytochrome P450 2C9): inconclusive

Compound: CC(=O)c1cccc(NC(=O)Cc2ccc3c(c2)CCCC3)c1
- AC50 (Cytochrome P450 2C19): 3.16 µM (inconclusive)
- AC50 (Cytochrome P450 2D6): 4.47 µM (inconclusive)
- AC50 (Cytochrome P450 1A2): 25.1 µM (inconclusive)
- AC50 (Cytochrome P450 2C9): inconclusive

Compound: O=S1(=O)N=C(N/N=C/c2ccccn2)c2ccccc21
- IC50 (Nonstructural protein 1): 3.27 µM (active)

Compound: COc1cccc(/C=N/N2C(=O)CSC2=S)c1O
- IC50 (Nonstructural protein 1): 2.19 µM (active)

Compound: COc1ccc(C2/C=C\CN(S(=O)(=O)c3ccc(C)cc3)[C@H](Cc3ccccc3)C(=O)N2Cc2ccc(F)cc2)cc1 (stereo not given in full)
- AC50 [3]: 12.9 µM (active)
- AC50 [4]: > 70 µM (inactive)
- AC50 [5]: 25.5 µM (active)

Compound: Cc1ccc(C(=O)c2cc3ccccc3o2)cc1[N+](=O)[O-]
- EC50 (BJ [11]): > 150 µM (not active)
- EC50 (BJ [12]): > 150 µM (not active)
- EC50 (BJ [13]): > 150 µM (inconclusive)
- EC50 [14]: > 150 µM (not active)

Compound: COC(=O)C1=CN(c2cccc(C)c2)C=C(C(=O)OC)C1c1cc(OC)c(O)c([N+](=O)[O-])c1
- IC50 (Genome polyprotein): 56.5 µM (active)
